Converted amounts (≈) assume the structure as drawn.
Columns and labels:
Assay type in all cases: cell-based
PSEUDOMONAS CEPACIA 296I = experiment: In vitro antibacterial activity, MIC, BHI agar dilution; conditions: P. cepacia 296I, unit assumed
ESCHERICHIA COLI KNK 437 = conditions: E. coli KNK 437; BHI agar; unit assumed
CANDIDA ALBICANS CCH 442 = experiment: In vitro antibacterial activity, MIC, BHI agar dilution; conditions: C. albicans CCH 442, unit assumed
ESCHERICHIA COLI SS = experiment: as above; conditions: E. coli SS, unit assumed
[1] = test system: PROVIDENCIA STUARTII CMX 640; conditions: P. stuartii CMX 640; BHI agar; unit assumed
[2] = test system: STREPTOCOCCUS BOVIS A-5169; experiment: In vitro antibacterial activity, MIC, BHI agar dilution; conditions: S. bovis A-5169, unit assumed
[3] = test system: STAPHYLOCOCCUS AUREUS NCTC10649M; experiment: as above; conditions: S. aureus NCTC10649M, unit assumed
[4] = test system: STAPHYLOCOCCUS AUREUS 1775; experiment: as above; conditions: S. aureus 1775, unit assumed
ESCHERICHIA COLI JUHL = conditions: E. coli JUHL; BHI agar; unit assumed
[5] = test system: STAPHYLOCOCCUS EPIDERMIDIS 3519; conditions: S. epidermidis 3519; BHI agar; unit assumed
[6] = test system: STREPTOCOCCUS PYOGENES EES61; experiment: In vitro antibacterial activity, MIC, BHI agar dilution; conditions: S. pyogenes EES61, unit assumed
[7] = test system: STAPHYLOCOCCUS AUREUS A5177; experiment: as above; conditions: S. aureus A5177, unit assumed
[8] = test system: PSEUDOMONAS AERUGINOSA DPHD-5263; experiment: as above; conditions: P. aeruginosa DPHD-5263, unit assumed
ESCHERICHIA COLI H560 = experiment: as above; conditions: E. coli H560, unit assumed
[9] = test system: STAPHYLOCOCCUS AUREUS CMX 642A; experiment: as above; conditions: S. aureus CMX 642A, unit assumed
[10] = test system: PSEUDOMONAS AERUGINOSA DPHD-2862; experiment: as above; conditions: P. aeruginosa DPHD-2862, unit assumed
[11] = test system: MYCOBACTERIUM SMEGMATIS ATCC 114; experiment: as above; conditions: M. smegmatis ATCC 114, unit assumed
STR[…] 508 = experiment: as above; conditions: S. agalactiae CMX 508, unit assumed
Procedure, shortened: (§1)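 MIC was read visually as the lowest drug level with no growth, a slight haze or sparsely isolated colonies relative to a compound-free growth control. Organisms were spotted at 1:100 dilution (1:10 for slow-growing strains) onto Brain Heart Infusion agar containing serial compound dilutions and incubated 20 to 24 hours at 35-37° C.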

M[…] ATCC 9341 = experiment: as above; conditions: M. luteus ATCC 9341, unit assumed
Procedure, shortened: as §1

EN[…] ATCC 8043 = experiment: as above; conditions: E. faecium ATCC 8043, unit assumed
Procedure, shortened: as §1

M[…] ATCC 4698 = experiment: as above; conditions: M. luteus ATCC 4698, unit assumed
Procedure, shortened: as §1

[12] = test system: STREPTOCOCCUS PYOGENES PIU 2548; experiment: as above; conditions: S. pyogenes PIU 2548, unit assumed
[13] = test system: PSEUDOMONAS AERUGINOSA BMH10; experiment: as above; conditions: P. aeruginosa BMH10, unit assumed
[14] = test system: STREPTOCOCCUS PYOGENES 930; experiment: as above; conditions: S. pyogenes 930, unit assumed
[15] = test system: STAPHYLOCOCCUS AUREUS ATCC 6538P; experiment: as above; conditions: S. aureus ATCC 6538P, 35-37° C., 20 to 24 hours, unit assumed
[16] = test system: PSEUDOMONAS AERUGINOSA K799/WT; experiment: as above; conditions: P. aeruginosa K799/WT, unit assumed
[17] = test system: KLEBSIELLA PNEUMONIAE ATCC 8045; experiment: as above; conditions: K. pneumoniae ATCC 8045, unit assumed
[18] = test system: STAPHYLOCOCCUS AUREUS CMX 553; experiment: as above; conditions: S. aureus CMX 553, unit assumed
ESCHERICHIA COLI DC-2 = experiment: as above; conditions: E. coli DC-2, unit assumed
[19] = test system: ENTEROBACTER AEROGENES ATCC 13048; experiment: as above; conditions: E. aerogenes ATCC 13048, unit assumed
[20] = test system: PSEUDOMONAS AERUGINOSA 5007; experiment: as above; conditions: P. aeruginosa 5007, unit assumed
[21] = test system: PSEUDOMONAS AERUGINOSA K799/61; experiment: as above; conditions: P. aeruginosa K799/61, unit assumed
[22] = test system: STAPHYLOCOCCUS AUREUS A-5278; experiment: as above; conditions: S. aureus A-5278, unit assumed

SMILES | MIC (PSEUDOMONAS CEPACIA 296I) | MIC (ESCHERICHIA COLI KNK 437) | MIC (CANDIDA ALBICANS CCH 442) | MIC (ESCHERICHIA COLI SS) | MIC [1] | MIC [2] | MIC [3] | MIC [4] | MIC (ESCHERICHIA COLI JUHL) | MIC [5] | MIC [6] | MIC [7] | MIC [8] | MIC (ESCHERICHIA COLI H560) | MIC [9] | MIC [10] | MIC [11] | MIC (STR[…] 508) | MIC (M[…] ATCC 9341) | MIC (EN[…] ATCC 8043) | further results
CC[C@H]1OC(=O)[C@H](C)C(=O)[C@H](C)[C@@H](O[C@@H]2O[C@H](C)C[C@H](N(C)C)[C@H]2O)[C@](C)(OC)C[C@@H](C)C2=N[C@@H]3CN(CCc4ccccc4)C[C@@H]3N3C(=O)O[C@@]1(C)[C@H]3[C@H]2C [Example 23] | 100 µg/mL (≈ 128 µM) | 25 µg/mL (≈ 31.9 µM) | > 100 µg/mL | 0.05 µg/mL (≈ 0.0639 µM) | > 100 µg/mL | ≤ 0.005 µg/mL | 0.2 µg/mL (≈ 0.255 µM) | > 100 µg/mL | 50 µg/mL (≈ 63.9 µM) | 0.78 µg/mL (≈ 0.996 µM) | ≤ 0.005 µg/mL | 0.2 µg/mL (≈ 0.255 µM) | > 100 µg/mL | 6.2 µg/mL (≈ 7.92 µM) | 0.2 µg/mL (≈ 0.255 µM) | > 100 µg/mL | 0.39 µg/mL (≈ 0.498 µM) | ≤ 0.005 µg/mL | 0.05 µg/mL (≈ 0.0639 µM) | 0.05 µg/mL (≈ 0.0639 µM) | MIC (M[…] ATCC 4698): 0.2 µg/mL (≈ 0.255 µM); MIC [12]: 0.78 µg/mL (≈ 0.996 µM); MIC [13]: > 100 µg/mL; MIC [14]: > 100 µg/mL; MIC [15]: 0.2 µg/mL (≈ 0.255 µM); MIC [16]: 100 µg/mL (≈ 128 µM); MIC [17]: 100 µg/mL (≈ 128 µM); MIC [18]: 0.2 µg/mL (≈ 0.255 µM); MIC (ESCHERICHIA COLI DC-2): 12.5 µg/mL (≈ 16 µM); MIC [19]: 100 µg/mL (≈ 128 µM); MIC [20]: > 100 µg/mL; MIC [21]: 0.2 µg/mL (≈ 0.255 µM); MIC [22]: > 100 µg/mL
CC[C@H]1OC(=O)[C@H](C)C(=O)[C@H](C)[C@@H](O[C@@H]2O[C@H](C)C[C@H](N(C)C)[C@H]2O)[C@](C)(OC)C[C@@H](C)C2=N[C@H](CO)CN3C(=O)O[C@@]1(C)[C@H]3[C@H]2C [Example 52] | > 100 µg/mL | 100 µg/mL (≈ 150 µM) | > 100 µg/mL | 0.39 µg/mL (≈ 0.584 µM) | > 100 µg/mL | 0.05 µg/mL (≈ 0.0749 µM) | 0.78 µg/mL (≈ 1.17 µM) | > 100 µg/mL | 100 µg/mL (≈ 150 µM) | 0.78 µg/mL (≈ 1.17 µM) | 0.05 µg/mL (≈ 0.0749 µM) | 0.78 µg/mL (≈ 1.17 µM) | > 100 µg/mL | 50 µg/mL (≈ 74.9 µM) | 0.78 µg/mL (≈ 1.17 µM) | > 100 µg/mL | 12.5 µg/mL (≈ 18.7 µM) | 0.05 µg/mL (≈ 0.0749 µM) | 0.1 µg/mL (≈ 0.15 µM) | 0.2 µg/mL (≈ 0.299 µM) | MIC (M[…] ATCC 4698): 0.39 µg/mL (≈ 0.584 µM); MIC [12]: 1.56 µg/mL (≈ 2.34 µM); MIC [13]: > 100 µg/mL; MIC [14]: > 100 µg/mL; MIC [15]: 0.78 µg/mL (≈ 1.17 µM); MIC [16]: > 100 µg/mL; MIC [17]: > 100 µg/mL; MIC [18]: 0.78 µg/mL (≈ 1.17 µM); MIC (ESCHERICHIA COLI DC-2): 100 µg/mL (≈ 150 µM); MIC [19]: > 100 µg/mL; MIC [20]: > 100 µg/mL; MIC [21]: 1.56 µg/mL (≈ 2.34 µM); MIC [22]: > 100 µg/mL

Source: US6274715A, “Tricyclic erythromycin derivatives” (priority 1997, dated 2001)
